In patent US20240217968A1, “PHARMACEUTICAL COMPOUND” (DUKE STREET BIO LIMITED, priority 2021, published 2024):

Molecular target: T1, recombinant human Flag-tagged PARP7 (amino acids 456-657) (Homo sapiens, UniProt Q7Z3E1)
T1 construct: recombinant human Flag-tagged PARP7 (amino acids 456-657)
T1 sequence (Q7Z3E1 456-657): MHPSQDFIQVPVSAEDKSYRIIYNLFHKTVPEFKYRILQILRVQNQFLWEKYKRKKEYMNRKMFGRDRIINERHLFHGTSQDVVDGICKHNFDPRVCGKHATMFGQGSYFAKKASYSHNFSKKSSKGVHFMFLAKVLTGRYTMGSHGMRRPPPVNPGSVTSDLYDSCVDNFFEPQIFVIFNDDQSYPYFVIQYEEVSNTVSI
Assay: PARP7 biochemical DELFIA assay (auto-MARylation)
Conditions: DELFIA readout, IC50 class
Method in brief: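 Readout is DELFIA time-resolved Eu fluorescence (Ex337 nm, Em620 nm) of biotin-ADP-ribose on immobilised Flag-tagged PARP7 456-657. Enzyme (12.5-37.5 nM as added) sat 30 min with compound before biotin-NAD+ (15 μM solution, pH 7.5 HEPES buffer) started 2-3 h room-temperature self-modification, stopped with excess NAD+.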

Row | SMILES | IC50 [nM]
1 | CC(COCCC(=O)N1CCN(c2cc(C(F)(F)F)ccn2)CC1)n1nc(C(F)(F)F)c2c(=O)[nH]ncc21 (stereo not shown) [Compound 352] | ≤ 100
2 | CC(COCCC(=O)N1CCN(c2ncccc2C(F)(F)F)CC1)n1nc(C(F)(F)F)c2c(=O)[nH]ncc21 (stereo not shown) [Compound 353] | ≤ 100
3 | CC(COCCC(=O)N1CCN(c2ncccc2C(F)(F)F)CC1)n1nc(C(F)(F)F)c2c(=O)[nH]ncc21 (stereo not shown) [Compound 354] | 100 to 1000
4 | CC(COCCC(=O)N1CCN(c2ncccc2Cl)CC1)n1nc(C(F)(F)F)c2c(=O)[nH]ncc21 (stereo not shown) [Compound 355] | ≤ 100
5 | CC1(C)CN(C(=O)CCOCCn2cc(C(F)(F)F)c3c(=O)[nH]ncc32)CCN1c1ncc(C(F)(F)F)cn1 [Compound 358] | ≤ 100
6 | O=C(CCOCCn1cc(C(F)(F)F)c2c(=O)[nH]ncc21)N1CCN(c2nc3cc(Cl)ccc3o2)CC1 [Compound 359] | ≤ 100
7 | N#Cc1ccc2oc(N3CCN(C(=O)CCOCCn4cc(C(F)(F)F)c5c(=O)[nH]ncc54)CC3)nc2c1 [Compound 361] | ≤ 100
8 | N#Cc1ccc2nc(N3CCN(C(=O)CCOCCn4cc(C(F)(F)F)c5c(=O)[nH]ncc54)CC3)oc2c1 [Compound 362] | ≤ 100
9 | O=C(CCOCCn1cc(C(F)(F)F)c2c(=O)[nH]ncc21)N1CCN(c2nc(C(F)(F)F)co2)CC1 [Compound 363] | ≤ 100
10 | O=C(CCOCCn1nc(C(F)(F)F)c2c(=O)[nH]ncc21)N1CCN(c2cc(C(F)(F)F)on2)CC1 [Compound 364] | ≤ 100
11 | Cn1c(=O)n(CCOCCC(=O)N2CCN(c3ncc(C(F)(F)F)cn3)CC2)c2cn[nH]c(=O)c21 [Compound 367] | ≤ 100
12 | CC(COCCC(=O)N1CCN(c2ncccc2F)CC1)n1nc(C(F)(F)F)c2c(=O)[nH]ncc21 (stereo not shown) [Compound 369] | ≤ 100
13 | CC1CN(C(=O)CCOCCn2cc(C(F)(F)F)c3c(=O)[nH]ncc32)CCN1c1ncc(C(F)(F)F)cn1 (stereo not shown) [Compound 372] | ≤ 100
14 | CC1CN(C(=O)CCOCCn2cc(C(F)(F)F)c3c(=O)[nH]ncc32)CCN1c1ncc(C(F)(F)F)cn1 (stereo not shown) [Compound 373] | ≤ 100
15 | CC(COCCC(=O)N1CCN(c2ccc(Cl)cn2)CC1)n1cc(C(F)(F)F)c2c(=O)[nH]ncc21 (stereo not shown) [Compound 374] | ≤ 100
16 | CC(COCCC(=O)N1CCN(c2ccc(C(F)(F)F)cn2)CC1)n1cc(C(F)(F)F)c2c(=O)[nH]ncc21 (stereo not shown) [Compound 376] | ≤ 100
17 | CC(COCCC(=O)N1CCN(c2ccc(C(F)(F)F)cn2)CC1)n1cc(C(F)(F)F)c2c(=O)[nH]ncc21 (stereo not shown) [Compound 377] | ≤ 100
18 | CC1(C)CN(c2ncc(C(F)(F)F)cn2)CCN1C(=O)CCOCCn1cc(C(F)(F)F)c2c(=O)[nH]ncc21 [Compound 378] | ≤ 100
19 | O=C(CCOCCn1cc(C(F)(F)F)c2c(=O)[nH]ncc21)N1CCN(c2nc3ccccc3o2)CC1 [Compound 379] | ≤ 100
20 | O=C(CCOCCn1cc(C(F)(F)F)c2c(=O)[nH]ncc21)N1CCN(c2nc3ccccc3[nH]2)CC1 [Compound 380] | ≤ 100
21 | Cn1c(N2CCN(C(=O)CCOCCn3cc(C(F)(F)F)c4c(=O)[nH]ncc43)CC2)nc2ccccc21 [Compound 381] | ≤ 100
22 | O=C(CCOCCn1cc(C(F)(F)F)c2c(=O)[nH]ncc21)N1CCN(c2nc3ccc(Cl)cc3o2)CC1 [Compound 382] | ≤ 100

Row | SMILES | IC50 [nM]
23 | O=C(CCOCCn1nc(C(F)(F)F)c2c(=O)[nH]ncc21)N1CCN(c2ncc(C(F)(F)F)o2)CC1 [Compound 383] | ≤ 100
24 | O=C(CCOCCn1cc(C(F)(F)F)c2c(=O)[nH]ncc21)N1CCN(c2ncc(C(F)(F)F)o2)CC1 [Compound 384] | ≤ 100
25 | CN(C(=O)COCCn1cc(C(F)(F)F)c2c(=O)[nH]ncc21)C1CCN(c2ncc(C(F)(F)F)cn2)CC1 [Compound 385] | ≤ 100
26 | CC(COCCC(=O)N1CCN(c2ncc(C(F)(F)F)cn2)CC1)n1nc(C(F)(F)F)c2c(=O)[nH]ccc21 (stereo not shown) [Compound 388] | ≤ 100
27 | CC(COCCC(=O)N1CCN(c2ncc(C(F)(F)F)cn2)CC1)n1nc(C(F)(F)F)c2c(=O)[nH]ccc21 (stereo not shown) [Compound 389] | ≤ 100
28 | O=C(CCOCCn1nc(C(F)(F)F)c2c(=O)[nH]ncc21)N1CCN(c2nnc(C(F)(F)F)[nH]2)CC1 [Compound 391] | ≤ 100
29 | CC(COCCC(=O)N1CCN(c2nnc(C(F)(F)F)[nH]2)CC1)n1nc(C(F)(F)F)c2c(=O)[nH]ncc21 (stereo not shown) [Compound 392] | 100 to 1000
30 | O=C(CCOCCn1nc(C(F)(F)F)c2c(=O)[nH]ncc21)N1CCN(c2ncc3c(n2)NCCC3)CC1 [Compound 394] | ≤ 100
31 | CC(COCCC(=O)N1CCN(c2ncc(C(F)(F)F)cn2)CC1)n1c(=O)n(C)c2c(=O)[nH]ncc21 (stereo not shown) [Compound 397] | ≤ 100
32 | CC(COCCC(=O)N1CCN(c2ncc(C(F)(F)F)cn2)CC1)n1c(=O)n(C)c2c(=O)[nH]ncc21 (stereo not shown) [Compound 398] | ≤ 100
33 | CC(COCCC(=O)N1CCN(c2ncc(C(F)(F)F)cn2)CC1)c1ccc(Cl)c2c(=O)[nH]ncc12 (stereo not shown) [Compound 399] | 100 to 1000
34 | CC(COCCC(=O)N1CCN(c2ncc(C(F)(F)F)cn2)CC1)c1ccc(Cl)c2c(=O)[nH]ncc12 (stereo not shown) [Compound 400] | ≤ 100
35 | O=C(CCOCCn1nc(C(F)(F)F)c2c(=O)[nH]c(=O)[nH]c21)N1CCN(c2ncc(C(F)(F)F)cn2)CC1 [Compound 401] | ≤ 100
36 | Cc1nn(CCOCCC(=O)N2CCN(c3ncc(C(F)(F)F)cn3)CC2)c2[nH]c(=O)[nH]c(=O)c12 [Compound 402] | ≤ 100
37 | O=C(CCOCCn1cc(C(F)(F)F)c2c(=O)[nH]c(=O)[nH]c21)N1CCN(c2ncc(C(F)(F)F)cn2)CC1 [Compound 403] | ≤ 100
38 | Cc1cn(CCOCCC(=O)N2CCN(c3ncc(C(F)(F)F)cn3)CC2)c2[nH]c(=O)[nH]c(=O)c12 [Compound 404] | ≤ 100
39 | O=C(c1cccc(Cn2nc(C(F)(F)F)c3c(=O)[nH]ncc32)c1)N1CCN(c2ncc(C(F)(F)F)cn2)CC1 [Compound 407] | ≤ 100
40 | [2H]C([2H])(Cn1nc(C(F)(F)F)c2c(=O)[nH]ncc21)OCCC(=O)N1CCN(c2ncc(C#N)cn2)CC1 [Compound 408] | ≤ 100
41 | [2H]C([2H])(Cn1nc(C(F)(F)F)c2c(=O)[nH]ncc21)OCCC(=O)N1CCN(c2ncc(C(F)(F)F)cn2)CC1 [Compound 409] | ≤ 100
42 | O=C(CCOCCc1c(Cl)ccc2c(=O)[nH]ncc12)N1CCN(c2ncc(C(F)(F)F)cn2)CC1 [Compound 410] | ≤ 100
43 | CC(COCCn1cc(C(F)(F)F)c2c(=O)[nH]ncc21)C(=O)N1CCN(c2ncc(C(F)(F)F)cn2)CC1 (stereo not shown) [Compound 412] | ≤ 100
44 | O=C(CCOCCn1c(=O)ccc2c(=O)[nH]ncc21)N1CCN(c2ncc(C(F)(F)F)cn2)CC1 [Compound 413] | ≤ 100

Row | SMILES | IC50 [nM]
45 | CC(COCCC(=O)N1CCN(c2ncc(C#N)cn2)CC1)c1ccc(Cl)c2c(=O)[nH]ncc12 (stereo not shown) [Compound 415] | ≤ 100
46 | CC(COCCC(=O)N1CCN(c2ccc(C#N)cn2)CC1)c1ccc(Cl)c2c(=O)[nH]ncc12 (stereo not shown) [Compound 417] | ≤ 100
47 | [2H]C([2H])(OCCC(=O)N1CCN(c2ncc(C(F)(F)F)cn2)CC1)C(C)n1nc(C(F)(F)F)c2c(=O)[nH]ncc21 (stereo not shown) [Compound 422] | ≤ 100
48 | O=C(CCOCC(F)(F)c1cccc2c(=O)[nH]ncc12)N1CCN(c2ncc(C(F)(F)F)cn2)CC1 [Compound 424] | ≤ 100
49 | CC(C)(COCCC(=O)N1CCN(c2ncc(C(F)(F)F)cn2)CC1)c1cccc2c(=O)[nH]ncc12 [Compound 425] | 100 to 1000
50 | O=C(CCOCC(c1cccc2c(=O)[nH]ncc12)C(F)(F)F)N1CCN(c2ncc(C(F)(F)F)cn2)CC1 (stereo not shown) [Compound 426] | 1000 to 10000
51 | N#Cc1nn(CCOCCC(=O)N2CCN(c3ncc(C(F)(F)F)cn3)CC2)c2cn[nH]c(=O)c12 [Compound 428] | ≤ 100
52 | O=C(CCOCCn1nc(C(F)(F)F)c2c(=O)[nH]ncc21)N1CCN(C2CN(CC(F)(F)F)C2)CC1 [Compound 433] | 1000 to 10000
53 | O=C(CCOCCn1nc(C(F)(F)F)c2c(=O)[nH]ncc21)N1CCN(c2nnc(C(F)(F)F)o2)CC1 [Compound 434] | ≤ 100
54 | CC(COCCC(=O)N1CCN(c2ncc(C(F)(F)F)cn2)CC1)n1nc(C(F)F)c2c(=O)[nH]ncc21 (stereo not shown) [Compound 435] | ≤ 100
55 | CC(COCCC(=O)N1CCN(c2ccc(C#N)cn2)CC1)n1nc(C(F)F)c2c(=O)[nH]ncc21 (stereo not shown) [Compound 438] | ≤ 100
56 | CC(COCCC(=O)N1CCN(c2ncc(C#N)cn2)CC1)n1cc(C(F)F)c2c(=O)[nH]ncc21 (stereo not shown) [Compound 440] | ≤ 100
57 | O=C(OCCCCn1nc(C(F)(F)F)c2c(=O)[nH]ncc21)N1CCN(c2ncc(C(F)(F)F)cn2)CC1 [Compound 441] | ≤ 100
58 | O=C(Cn1nc(C(F)(F)F)c2c(=O)[nH]ncc21)N1CCC(C(=O)N2CCN(c3ncc(C(F)(F)F)cn3)CC2)C1 (stereo not shown) [Compound 442] | 1000 to 10000
59 | O=C(Cn1nc(C(F)(F)F)c2c(=O)[nH]ncc21)N1CCC(C(=O)N2CCN(c3ncc(C(F)(F)F)cn3)CC2)C1 (stereo not shown) [Compound 443] | 1000 to 10000
60 | N#Cc1ccc(N2CCN(C(=O)CCOCC(F)(F)c3cccc4c(=O)[nH]ncc34)CC2)nc1 [Compound 446] | ≤ 100
61 | O=c1[nH]ncc2c1c(C(F)(F)F)nn2CCOCCS(=O)(=O)N1CCN(c2ncc(C(F)(F)F)cn2)CC1 [Compound 447] | ≤ 100
62 | CC(COCCC(=O)N1CCN(c2ccc(C#N)cn2)CC1)n1cc(C(F)F)c2c(=O)[nH]ncc21 (stereo not shown) [Compound 449] | ≤ 100
63 | CC(COCCC(=O)N1CCN(c2ncc(Cl)cn2)CC1)n1cc(C(F)F)c2c(=O)[nH]ncc21 (stereo not shown) [Compound 450] | ≤ 100
64 | CC(COCCC(=O)N1CCN(c2ncc(Cl)cn2)CC1)n1cc(C(F)F)c2c(=O)[nH]ncc21 (stereo not shown) [Compound 451] | ≤ 100
